Experimental data published in article PMC12643230, “Retention order prediction of peptides containing non-proteinogenic amino acids” (Bioinformatics Advances, 2025).
Like-named read-outs stand apart in the source and are kept apart here.

Assay: LC/MS retention time of standard compounds and sponge extract (in-house platform)
Assay type: physicochemical
Parameters: RT (retention time): unit not given here
Protocol: Total 22 compounds and 9 PNPA standards covering a long time-range were purchased as reference standards (Table 1). Each standard compound was experimentally measured with our in-house LC/MS platform with conditions in Supporting Table 1, available as supplementary data at Bioinformatics Advances online.
The resulting extract was dissolved in methanol and subjected to LC/MS analysis with conditions in Supporting Table 1, available as supplementary data at Bioinformatics Advances online, for metabolite profiling.

[1] = purchased PNPA standard, in-house LC/MS platform, conditions in Supporting Table 1 (not shown), retention time related to hydrophobic/hydrophilic substructures, unit not given

Molecule | RT (retention time) [1] | further results
Bacitracin | – | RT (retention time): 4.67
[Arg8]-Vasopressin | 3.11 | –
Jaspamide [Measured compound] | – | Retention order of the measured compound against reference compound 2-Propenyl glucosinolate (binary 1/0) (column 'Measured compound', reference RT 1.74, observed order, no key for 1/0 printed, sheet COCONUT): 1; RT (retention time) of measured compound (compound detected in methanol extract of marine sponge Jaspis splendens, same in-house LC/MS conditions (Supporting Table 1), annotated as Jaspamide via retention order and MS/MS, unit not given): 8.45
C/C(=C\c1csc(C)n1)[C@@H]1C[C@@H]2O[C@]2(C)CCC[C@H](C)[C@H](O)[C@@H](C)C(=O)C(C)(C)[C@@H](O)CC(=O)O1 [Epothilone B] | 7.67 | –
Gramicidin A | 9.19 | –
α-Amanitin | 3.41 | –
C=CC/C(=N/OS(=O)(=O)O)S[C@@H]1O[C@H](CO)[C@@H](O)[C@H](O)[C@H]1O [2-Propenyl glucosinolate] | – | RT (retention time of the reference compound) (LC/MS, in-house platform, reference compound used for retention order comparison, sheet COCONUT): 1.74 min
